The IC50 is the concentration needed to halve the response being measured. Read a low IC50 as higher potency.

Test in all cases: cell-based
For one experiment, the target named is human ZIP8 (hZIP8) (Homo sapiens, UniProt Q9C0K1).
The target in experiment [1] is human ZIP14 (hZIP14) isoform 1, HA-tagged (Homo sapiens, UniProt Q15043, D443L).
For experiment [2], the target named is human ZIP14 (hZIP14) isoform 1, HA-tagged (Homo sapiens, UniProt Q15043).

Molecules are shown by their SMILES. Some results are limits rather than exact numbers.

Sequence of human ZIP14 (hZIP14) isoform 1, HA-tagged (Homo sapiens, UniProt Q15043, D443L) (Q15043 31-492 D443L): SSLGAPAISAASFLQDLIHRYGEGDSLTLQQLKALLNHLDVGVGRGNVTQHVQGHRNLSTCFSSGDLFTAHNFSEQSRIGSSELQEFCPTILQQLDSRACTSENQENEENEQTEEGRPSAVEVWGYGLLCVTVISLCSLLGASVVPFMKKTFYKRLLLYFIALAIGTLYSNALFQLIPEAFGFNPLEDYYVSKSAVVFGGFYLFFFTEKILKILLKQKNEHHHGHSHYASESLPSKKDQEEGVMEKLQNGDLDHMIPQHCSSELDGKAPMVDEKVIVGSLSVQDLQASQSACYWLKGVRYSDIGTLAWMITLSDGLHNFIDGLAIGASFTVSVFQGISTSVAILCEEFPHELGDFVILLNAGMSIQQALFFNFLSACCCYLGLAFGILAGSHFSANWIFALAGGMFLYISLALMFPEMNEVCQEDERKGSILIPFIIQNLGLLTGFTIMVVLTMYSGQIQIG
Sequence of human ZIP8 (hZIP8) (Q9C0K1 23-460): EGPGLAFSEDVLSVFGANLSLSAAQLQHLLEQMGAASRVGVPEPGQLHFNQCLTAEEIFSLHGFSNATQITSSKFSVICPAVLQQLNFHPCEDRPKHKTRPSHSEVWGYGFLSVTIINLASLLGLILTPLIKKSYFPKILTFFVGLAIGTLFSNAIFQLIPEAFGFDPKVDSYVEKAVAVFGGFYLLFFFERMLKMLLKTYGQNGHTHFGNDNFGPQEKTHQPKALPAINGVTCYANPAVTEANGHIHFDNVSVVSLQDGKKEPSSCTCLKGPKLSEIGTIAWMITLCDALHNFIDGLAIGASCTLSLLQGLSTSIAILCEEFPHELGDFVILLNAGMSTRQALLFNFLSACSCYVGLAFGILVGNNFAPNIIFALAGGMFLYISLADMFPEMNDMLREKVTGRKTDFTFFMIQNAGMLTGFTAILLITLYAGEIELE
Sequence of human ZIP14 (hZIP14) isoform 1, HA-tagged (Homo sapiens, UniProt Q15043) (Q15043 31-492): as the sequence (Q15043 31-492 D443L) above, with L413D counted along it

As for `O=C1NCN(c2ccccc2)C12CCN(CCc1ccccc1)CC2` [PPTD, 1-phenyl-8-(2-phenylethyl)-1,3,8-triazaspiro[4.5]decan-4-one], the IC50 on human ZIP8 (hZIP8) was greater than 37 µM; in experiment [1], 19 µM; in experiment [2], 8.9 µM.
